Measurements reported in US10765763B2, “Radioligands for myelin” (CASE WESTERN RESERVE UNIVERSITY, priority 2016, dated 2020).
Entries after “also recorded” stand apart in the source; their conditions may differ.

Columns and labels:
myelin [1] = test: Quantitative microPET/CT imaging of spinal cord in rat SCI model; type: in vivo; settings: for uptake in T13: normalized to average spine uptake
Protocol: Sprague-Dawley female rats (220-250 g, 8 weeks old) were anesthetized and a restricted laminectomy was conducted to expose the dorsal surface of T13. The vertebral column between T12 and L1 was then stabilized with clamps and forceps fixed to the base of an Infinite Horizon impact device. The midpoint of T13 was impacted with a force of 250 kDyn using a 2.5 mm stainless steel impactor tip, which was used to induce a moderately severe contusive injury to the spinal cord. The musculature was then sutured over the laminectomy site and the skin closed with wound clips followed by subsequent treatment with Marcaine at the incision site. The force/displacement graph was used to monitor impact consistency. After surgery, the animals were carefully monitored daily for pain and body weight with manual bladder expression 2-3 times daily to stimulate reflex voiding until the animals could urinate independently.
(§1) For better anatomic localization, CT co-registration was applied.
So far, imaging of the spinal cord remains a great challenge. […] Next, we asked whether [18F]21 PET is capable of in vivo imaging of myelin deficiency or myelin damage in living animal models. We conducted [^18F]21-PET imaging in a rat model of thoracic contusive SCI. In this model, the contusion was made at T13 to introduce demyelination. In vivo [^18F]21 PET imaging was performed before (as a baseline scan) and 1 day after contusion. The uptake of [^18F]21 in every spine segment was then normalized to the average spine uptake. […] After microPET/CT imaging, we conducted in situ histological staining of the spinal cord 60 min after injection of nonlabeled compound 21 through the tail vein.

myelin [2] = test: In situ autoradiography of [18F]21 in mouse brain; type: in vivo; settings: coronal, after tail vein injection
Protocol: Wild-type mice were euthanized at 30 min post iv injection of [^18F]21 (111 MBq, 3.0 mCi). The brains were rapidly removed, placed in OCT embedding medium, and frozen at −20° C. After reaching equilibrium at this temperature, the brains were coronally sectioned at 60 μm on a cryostat and mounted on superfrost slides. After drying by air at room temperature, the slides were put in a cassette and exposed for 20 min to film to obtain images.
To validate the PET results and confirm that the PET signals were indeed from specific binding to myelin, we conducted ex vivo autoradiography in the mouse brain following administration of [^18F]21 through tail vein injections. After 1 h, the mouse brain was dissected for coronal tissue sectioning. […] Thus, combination of in situ autoradiography and PET imaging confirmed that [^18F]21 binds specifically to myelin in vivo.

myelin [3] = test: Quantitative microPET/CT imaging in Shiverer and WT mice; type: in vivo, mouse; settings: microPET
Protocol: as §1
To further evaluate the in vivo binding specificity of [^18F]21, we investigated the pharmacokinetic profiles of [^18F]21 in a Shiverer mouse model that is deficient in myelin in the brain. Thus, the pharmacokinetic profiles of [^18F]21 were quantitatively compared between Shiverer mice (C3Fe.SWV-Mbpshi/J, n=2) and age-matched WT mice (CB57J, n=2).
Dynamic emission scans were acquired for 60 min in 3D list mode immediately after [^18F]21 (0.3 mCi each mouse, 11.1 MBq) was administered. The brain uptake of [^18F]21 was lower in the Shiverer brain than in the WT littermates (1.25 vs 1.64). After the brain concentration of [^18F]21 reached a plateau, the SUVs from 40 to 60 min were summarized and compared.

[4] = Quantitative microPET/CT imaging in WT rats, Example 2; type: in vivo, rat
Protocol: as §1
Following radiosynthesis, the pharmacokinetic profile of [^18F]21 was fully characterized by quantitative microPET/CT imaging in WT rats (n=3). […] The brain radioactivity peaked at 3 min postinjection followed by rapid clearance before reaching a plateau at 40-60 min postinjection.

myelin [5] = test: In situ histological staining of SCI (T13) spinal cord after microPET/CT; type: in vivo, rat; settings: SCI rats, 60 min after tail vein injection
Protocol: After microPET imaging studies, the rats were administered compound 21 (3-5 mg) via tail vein injection, and 60 min later the rats were perfused transcardially with saline followed by 4% PFA in PBS. Spinal cords were then removed, postfixed by immersion in 4% PFA overnight, dehydrated in 30% sucrose solution, cryostat sectioned at 100 μm, mounted consecutively on superfrost slides, and images were sequentially acquired directly using a Leica fluorescent microscope to give a series of 2D microscopic images along the length of the spinal cord. Slices were aligned sequentially using a semiautomated image registration algorithm. Starting from the first slice image, the current slice was used as the reference image for alignment and the next slice was the floating image. The floating image was aligned via control point pairs between corresponding anatomic features in the two images. A 2D rigid-body transformation (translation, rotation) was used to transform the floating image to align with the reference and a minimum of three control point pairs were used for the transformation. […] All slices in the sequence were aligned by this technique, giving a 3D reconstructed fluorescence image volume. Image volumes from fluorescence, PET, and CT were visualized in Amira using volume rendering and aligned based on the shape of the spine and fiducials from the vertebrae. […]

myelin [6] = test: In situ staining of compound 21 in wild-type mice; type: in vivo, mouse; settings: WT mice, 1.0 mg (50 mg/kg) tail vein, 1 h
Protocol: Wild-type mice were administered the newly synthesized compounds (40 mg/kg) via tail vein injection, and 30-60 min later the mice were perfused transcardially with saline followed by 4% PFA in PBS. Brains and spinal cords were then removed, postfixed by immersion in 4% PFA overnight, dehydrated in 30% sucrose solution, cryostat sectioned at 100 μm, mounted on superfrost slides, and images were acquired directly using a Leica fluorescent microscope.
Following the in vitro studies, we then investigated the ability of compound 21 to readily enter the brain and bind to myelin in situ. A dose of 1.0 mg of compound 21 (50 mg/kg) was administered via the tail vein to wild-type (WT) mice. One hour after injection, the mice were perfused with saline followed by 4% paraformaldehyde (PFA) and the brain and spinal cord were removed and sectioned. The distribution of compound 21 was then directly examined under a fluorescent microscope.

myelin [7] = test: In vitro detection of focal demyelination in LPC rat model; type: binding; settings: in vitro tissue staining
Protocol: Sprague-Dawley female rats (220-250 g, 8 weeks old) were anesthetized and positioned in a stereotaxic frame (Stoelting). A small incision was made in the scalp, and the corpus callosum was targeted using the following stereotaxic coordinates, relative to bregma: anterior-posterior, 0.0 mm; medial-lateral, 2.0 mm; and dorsal-ventral, 3.4 mm A small hole was drilled in the skull, and a 26S-gauge needle attached to a 10 μL Hamilton Syringe was lowered into the corpus callosum according to the dorsal-ventral coordinate. A microinjector pump (Stoelting) controlled the infusion of 6 μL of lysolecithin (LPC, 0.1% in saline) at a rate of 0.25 μL/min, after which the needle was left in place for 2 min in order to prevent liquid reflux out of the brain parenchyma. The incision was then closed using 5-0 Ethicon sutures, and the animals were allowed to recover on a heating pad. After 5-7 days, the animals were ready for study.
Five days after surgery, the rats were anesthetized and perfused with saline followed by 4% PFA. […] Sections were then examined under a microscope (Leica DM4000B, Leica Microsystem Inc., Buffalo Grove, Ill., USA) equipped for fluorescence (DFC7000T), and images of the stained mouse whole brain sections were acquired with the same exposure time. […]

SMILES	uptake in L1 (myelin [1]; 1 day post-T13 contusion)	uptake in T12 (myelin [1]; 1 day post-T13 contusion)	uptake in T13 (myelin [1]; SCI group, 1 day post-T13 contusion)	uptake in T13 (myelin [1]; baseline scan before contusion)	uptake in L1 (myelin [1]; before contusion)	uptake in T12 (myelin [1]; before contusion)	autoradiographic labeling (myelin [2])	brain uptake (myelin [3]; Shiverer mouse brain)	brain uptake (myelin [3]; WT littermates)	brain uptake ([4]; WT rats (n=3), microPET/CT)	time constant of clearance ([4]; WT rats, calculated from fitted time-radioactivity curve) [min]	time of peak brain radioactivity ([4]; WT rats, postinjection) [min]	time of plateau of brain radioactivity ([4]; WT rats, postinjection) [min]	in situ histological staining of SCI (T13) tissue section (myelin [5])	brain/spinal cord entry and in situ myelin staining (myelin [6])	detection of demyelinated lesion by fluorescent staining (myelin [7])
CNc1ccc(/C=C/c2ccc(NCc3cn(CC[18F])nn3)cc2)cc1 [[^18F]21]	1.08	0.99	0.81	1.02	1.05	0.99	distinctly labeled the corpus callosum	1.25	1.64	high uptake in the brain	19.45	3	40 to 60	–	–	–
CNc1ccc(/C=C/c2ccc(NCc3cn(CCF)nn3)cc2)cc1 [Compound 21, (E)-N-((1-(2-Fluoroethyl)-1H-1,2,3-triazol-4-yl)methyl)-4-(4-(methylamino)styryl)aniline]	–	–	–	–	–	–	–	–	–	–	–	–	–	showed that a demyelinated lesion was present at the dorsal column	readily entered the brain and spinal cord and localized in all the myelinated regions in proportion to the myelin content; also recorded: crosses the BBB and stains myelinated areas of the mouse brain	capable of detecting the demyelinated focal lesion by fluorescent staining; also recorded: can be used to detect demyelinated lesion
